In the NIST ThermoML archive (doi:10.1016/j.jct.2008.12.015):
± gives the expanded uncertainty stated by the source.

Columns and labels:
[1] = Crystal; for mass density: 298.15 K, 101.33 kPa; for Normal melting temperature: DTA
[2] = molar enthalpy of vaporization or sublimation; settings: Static calorimetry

| Compound | mass density [1] | Normal melting temperature [1] | molar enthalpy ([2]; 399.15 K, Crystal) | molar enthalpy ([2]; 322.65 K, Crystal) | molar enthalpy ([2]; 334 K, Liquid) |
| --- | --- | --- | --- | --- | --- |
| CC(C)(C)c1ccc(-c2ccc(C(C)(C)C)cc2)cc1 [4,4'-bis(1,1-dimethylethyl)-1,1'-biphenyl] | 950 kg/m3 | 127.7 ± 0.4 °C | 23.8 ± 0.406 kcal/mol | – | – |
| CC(C)(C)c1ccc(-c2ccccc2)cc1 [4-(1,1-dimethylethyl)-1,1'-biphenyl] | 1030 kg/m3 | 51.6 ± 0.4 °C | – | 23.3 ± 0.382 kcal/mol | 18.4 ± 0.206 kcal/mol |
